EPA's ToxValDB 9.5

Test system: Rattus norvegicus
Details: oral, gavage

CC(=O)O.O=C(NCC1CCCCN1)c1cc(OCC(F)(F)F)ccc1OCC(F)(F)F (stereo not drawn) [Flecainide acetate]
NOAEL (chronic, duration: 91 days, F, Sprague-Dawley, Deaths + Clinical Observation: Patchy hair loss Salivation + Water Consumption: increase + Urinalysis: Volume increase, Protein decrease + …): 20 mg/kg-day | NOAEL (chronic, duration: 91 days, M, Sprague-Dawley, Deaths + Clinical Observation: Patchy hair loss Salivation + Water Consumption: increase + Urinalysis: Volume increase, Protein decrease + …): 10 mg/kg-day

CC(C)CC(C)(C#N)N=NC(C)(C#N)CC(C)C (stereo not drawn) [2,2'-Azobis[2,4-dimethylvaleronitrile]]
NOEL (subchronic, M, Sprague-Dawley, Clinical Observation: Salivation + Blood Chemistry: gamma- GTP increase, TG decrease + Absolute Organ Weight: Liver increase, R + Relative …): 10 mg/kg-day

O=[N+]([O-])c1ccc(Cl)c(Cl)c1 [3,4-Dichloronitrobenzene]
NOEL (subchronic, M, Sprague-Dawley, Hematology: RBC decrease, Hct decrease, MCV increase, MCH increase, Hgb decrease, MCHC decrease, Ret increase + Blood Chemistry: T-Bil: …): < 4 mg/kg-day

ClCBr [Bromochloromethane]
NOEL (subchronic, duration: 42 days, M, CD(SD), Absolute Organ Weight: Liver increase + Relative Organ Weight: Liver increase + Necropsy: Stomach-Dark red focus, glandular stomach + …): 30 mg/kg-day

COc1cc(S(=O)(=O)CCOS(=O)(=O)O)c(C)cc1N
NOEL (short-term, duration: 28 days, M, Absolute Organ Weight: Liver increase + Histopathology: Kidney-Eosinophilic droplet, tubular epithelium): 30 mg/kg-day

C=C[Si](OCCOC)(OCCOC)OCCOC [Tris(2-methoxyethoxy)vinylsilane]
NOAEL (short-term, duration: 28 days, M/F, CD(SD), Body Weight Changes: decrease + Food Consumption: decrease + Hematology: RBC decrease, HGB decrease, HCT decrease, MCHC decrease, RET …): 25 mg/kg-day

O=[N+]([O-])/N=C1\NCCN1Cc1ccc(Cl)nc1 [Imidacloprid]
NOEL (chronic, duration: 96 days, M/F, Body Weight Changes: Weight gain decrease + Hematology: WBC decrease, QT increase + Blood Chemistry: BUN increase, CL increase, IP decrease…): < 150 ppm
